According to the CheMixHub viscosity set:

Experiment: xn = mol fraction of the nth substance listed

CCCCn1cc[n+](C)c1.F[P-](F)(F)(F)(F)F + O
298.15 K, 101 kPa
Conditions | viscosity [mPa·s]
x2 = 0.0518 | 198
x2 = 0.2146 | 92.5

C[N+](C)(C)CC(=O)O.[Cl-] + O
viscosity [mPa·s], 101 kPa
Conditions | 293.15 K | 298.15 K | 303.15 K | 308.15 K | 313.15 K | 318.15 K
x1 = 0.000448 | 1.007 | 0.8948 | 0.8017 | 0.7233 | 0.6568 | –
x1 = 0.000896 | 1.011 | 0.8992 | 0.8061 | 0.7276 | 0.661 | 0.6055
x1 = 0.00135 | 1.016 | 0.9038 | 0.8106 | 0.7321 | 0.6654 | –
x1 = 0.0018 | 1.02 | 0.9082 | 0.815 | 0.7365 | 0.6697 | 0.614
x1 = 0.002247 | 1.025 | 0.9126 | 0.8193 | 0.7408 | 0.674 | 0.6184
x1 = 0.002691 | 1.029 | 0.917 | 0.8237 | 0.7452 | 0.6783 | 0.6227
x1 = 0.003581 | 1.038 | 0.9259 | 0.8324 | 0.7539 | 0.687 | 0.6313
x1 = 0.004484 | 1.048 | 0.9348 | 0.8413 | 0.7627 | 0.6956 | 0.6401
x1 = 0.005363 | 1.056 | 0.9435 | 0.85 | 0.7712 | 0.7043 | 0.6486
x1 = 0.006268 | 1.066 | 0.9526 | 0.859 | 0.7799 | 0.713 | 0.6575
x1 = 0.007163 | 1.075 | 0.9616 | 0.8677 | 0.789 | 0.7217 | 0.6664

C[NH+](C)CCO.O=C([O-])CCCC(=O)O + O
101 kPa, x2 = 0.89
Conditions | viscosity [mPa·s]
298 K | 19.3
313 K | 11.8

[Cl-].[Cs+] + O
310.15 K, 101 kPa
Conditions | viscosity [mPa·s]
x1 = 0.000182 | 0.6996
x1 = 0.000907 | 0.7002
x1 = 0.001823 | 0.7061
x1 = 0.002695 | 0.7089
x1 = 0.003679 | 0.7129
x1 = 0.005197 | 0.719
x1 = 0.005988 | 0.7223

OCCCCCO + O=C1CCCN1
308.15 K, 101 kPa
Conditions | viscosity [mPa·s]
x1 = 0.479 | 21.15
x1 = 0.9392 | 54.65

CC(O)C(=O)O (stereo not given) + O=C(O)[C@@H]1CCCN1
Conditions | viscosity [mPa·s]
323.15 K, 100 kPa, x1 = 0.5 | 997.4

C[NH+](C)CCO.O=C([O-])CCCC(=O)O + O=S1(=O)CCCC1
101 kPa, x1 = 0.27
Conditions | viscosity [mPa·s]
303.15 K | 132.4
313.15 K | 81.7
323.15 K | 54.1

OC1CCCC1 + OCCO
viscosity [mPa·s], 100 kPa
Conditions | 293.15 K | 298.15 K | 303.15 K | 308.15 K | 313.15 K | 318.15 K
x1 = 0.0096 | 20.05 | 16.39 | 13.54 | 11.2 | 9.449 | 7.776
x1 = 0.0395 | 19.37 | 15.85 | 13.05 | 10.76 | 9.1 | 7.468
x1 = 0.0579 | 19.05 | 15.56 | 12.79 | 10.56 | 8.919 | 7.326
x1 = 0.0879 | 18.56 | 15.14 | 12.41 | 10.23 | 8.646 | 7.096
x1 = 0.1 | 18.37 | 14.97 | 12.3 | 10.1 | 8.562 | 7.014
x1 = 0.1962 | 17.2 | 13.96 | 11.39 | 9.382 | 7.926 | 6.505
x1 = 0.305 | 16.2 | 13.09 | 10.65 | 8.716 | 7.366 | 6.078
x1 = 0.3969 | 15.4 | 12.54 | 10.2 | 8.282 | 7.016 | 5.819
x1 = 0.4993 | 14.8 | 12.02 | 9.751 | 7.927 | 6.692 | 5.617
x1 = 0.5877 | 14.3 | 11.69 | 9.42 | 7.677 | 6.437 | 5.439
x1 = 0.6993 | 13.9 | 11.33 | 8.99 | 7.319 | 6.14 | 5.219
x1 = 0.797 | 13.56 | 11.01 | 8.69 | 7.01 | 5.861 | 5.05
x1 = 0.8977 | 13.15 | 10.62 | 8.345 | 6.737 | 5.625 | 4.89

Clc1ccccc1 + OCCOCCOCCO
viscosity [mPa·s], 101 kPa
Conditions | 298.15 K | 308.15 K
x2 = 0.0473 | 0.941 | 0.808
x2 = 0.149 | 1.491 | 1.172
x2 = 0.2493 | 2.307 | 1.682
x2 = 0.3495 | 3.504 | 2.4
x2 = 0.439 | 5.014 | 3.283
x2 = 0.4734 | 5.733 | 3.699
x2 = 0.5509 | 7.695 | 4.829
x2 = 0.6512 | 11.09 | 6.787
x2 = 0.7493 | 15.58 | 9.422
x2 = 0.8483 | 21.58 | 13.05
x2 = 0.9428 | 28.99 | 17.74

COC(C)(C)C + c1ccccc1
Conditions | viscosity [mPa·s]
293.15 K, 101.33 kPa, x1 = 0.0933 | 0.629
293.15 K, 101.33 kPa, x1 = 0.1906 | 0.5805
293.15 K, 101.33 kPa, x1 = 0.2994 | 0.5449
293.15 K, 101.33 kPa, x1 = 0.3965 | 0.5122
293.15 K, 101.33 kPa, x1 = 0.5143 | 0.4813
293.15 K, 101.33 kPa, x1 = 0.6083 | 0.4593
293.15 K, 101.33 kPa, x1 = 0.7015 | 0.4466
293.15 K, 101.33 kPa, x1 = 0.8071 | 0.416
293.15 K, 101.33 kPa, x1 = 0.9024 | 0.4052
298.15 K, 101 kPa, x1 = 0.0502 | 0.566
298.15 K, 101 kPa, x1 = 0.0999 | 0.551
298.15 K, 101 kPa, x1 = 0.1994 | 0.499
298.15 K, 101 kPa, x1 = 0.3005 | 0.473
298.15 K, 101 kPa, x1 = 0.4006 | 0.457
298.15 K, 101 kPa, x1 = 0.5003 | 0.437
298.15 K, 101 kPa, x1 = 0.6 | 0.422
298.15 K, 101 kPa, x1 = 0.7003 | 0.397
298.15 K, 101 kPa, x1 = 0.8 | 0.395
298.15 K, 101 kPa, x1 = 0.8997 | 0.376
298.15 K, 101 kPa, x1 = 0.9497 | 0.372
298.15 K, 101.33 kPa, x1 = 0.0933 | 0.5806
298.15 K, 101.33 kPa, x1 = 0.1906 | 0.5446
298.15 K, 101.33 kPa, x1 = 0.2994 | 0.5084
298.15 K, 101.33 kPa, x1 = 0.3965 | 0.4776
298.15 K, 101.33 kPa, x1 = 0.5143 | 0.4676
298.15 K, 101.33 kPa, x1 = 0.6083 | 0.4417
298.15 K, 101.33 kPa, x1 = 0.7015 | 0.4227
298.15 K, 101.33 kPa, x1 = 0.8071 | 0.4037
298.15 K, 101.33 kPa, x1 = 0.9024 | 0.398
303.15 K, 101 kPa, x1 = 0.118 | 0.536
303.15 K, 101 kPa, x1 = 0.2242 | 0.51
303.15 K, 101 kPa, x1 = 0.3408 | 0.483
303.15 K, 101 kPa, x1 = 0.5123 | 0.445
303.15 K, 101 kPa, x1 = 0.6615 | 0.413
303.15 K, 101 kPa, x1 = 0.8195 | 0.382

Clc1ccccc1 + c1ccccc1
Conditions | viscosity [mPa·s]
293.15 K, 101.33 kPa, x1 = 0.143 | 0.6759
293.3 K, 101.33 kPa, x1 = 0.028 | 0.6845
293.55 K, 101.33 kPa, x1 = 0.232 | 0.711
293.65 K, 101.33 kPa, x1 = 0.318 | 0.7337
298.15 K, 101 kPa, x1 = 0.08 | 0.613
298.15 K, 101 kPa, x1 = 0.121 | 0.62
298.15 K, 101 kPa, x1 = 0.162 | 0.623
298.15 K, 101 kPa, x1 = 0.8 | 0.718
298.15 K, 101 kPa, x2 = 0.1034 | 0.7546
298.15 K, 101 kPa, x2 = 0.2016 | 0.7369
298.15 K, 101 kPa, x2 = 0.303 | 0.7233
298.15 K, 101 kPa, x2 = 0.4022 | 0.7072
298.15 K, 101 kPa, x2 = 0.4985 | 0.6923
298.15 K, 101 kPa, x2 = 0.6048 | 0.6743
298.15 K, 101 kPa, x2 = 0.6994 | 0.6625
298.15 K, 101 kPa, x2 = 0.8033 | 0.6462
298.15 K, 101 kPa, x2 = 0.9031 | 0.632
303.15 K, 101 kPa, x2 = 0.1126 | 0.7
303.15 K, 101 kPa, x2 = 0.2016 | 0.6977
303.15 K, 101 kPa, x2 = 0.2221 | 0.6855
303.15 K, 101 kPa, x2 = 0.303 | 0.6794
303.15 K, 101 kPa, x2 = 0.3286 | 0.6713
303.15 K, 101 kPa, x2 = 0.4322 | 0.6573
303.15 K, 101 kPa, x2 = 0.4985 | 0.652
303.15 K, 101 kPa, x2 = 0.5331 | 0.6432
303.15 K, 101 kPa, x2 = 0.6048 | 0.6347
303.15 K, 101 kPa, x2 = 0.6314 | 0.6285
303.15 K, 101 kPa, x2 = 0.6994 | 0.6217
303.15 K, 101 kPa, x2 = 0.7271 | 0.6127
303.15 K, 101 kPa, x2 = 0.8033 | 0.6064
303.15 K, 101 kPa, x2 = 0.8204 | 0.5964
303.15 K, 101 kPa, x2 = 0.9031 | 0.5883
303.15 K, 101 kPa, x2 = 0.9113 | 0.5798
303.15 K, 101.33 kPa, x1 = 0.143 | 0.6027
308.15 K, 101 kPa, x1 = 0.08 | 0.537
308.15 K, 101 kPa, x1 = 0.121 | 0.544
308.15 K, 101 kPa, x1 = 0.162 | 0.547
308.15 K, 101 kPa, x2 = 0.303 | 0.6411
308.15 K, 101 kPa, x2 = 0.4022 | 0.6281
308.15 K, 101 kPa, x2 = 0.4985 | 0.6109
308.15 K, 101 kPa, x2 = 0.6048 | 0.5958
308.15 K, 101 kPa, x2 = 0.6994 | 0.5832
308.15 K, 101 kPa, x2 = 0.8033 | 0.5679
308.15 K, 101 kPa, x2 = 0.9031 | 0.5512
313.05 K, 101.33 kPa, x1 = 0.318 | 0.5743
313.15 K, 101 kPa, x2 = 0.303 | 0.6041
313.15 K, 101 kPa, x2 = 0.4022 | 0.5902
313.15 K, 101 kPa, x2 = 0.4985 | 0.5747
313.15 K, 101 kPa, x2 = 0.6048 | 0.5628
313.15 K, 101 kPa, x2 = 0.6994 | 0.5482
313.15 K, 101 kPa, x2 = 0.8033 | 0.5333
313.15 K, 101 kPa, x2 = 0.9031 | 0.5146
313.15 K, 101.33 kPa, x1 = 0.028 | 0.5278
313.15 K, 101.33 kPa, x1 = 0.411 | 0.5831
313.25 K, 101.33 kPa, x1 = 0.143 | 0.54
313.25 K, 101.33 kPa, x1 = 0.232 | 0.5469
313.25 K, 101.33 kPa, x1 = 0.707 | 0.6187
313.35 K, 101.33 kPa, x1 = 0.512 | 0.593
313.75 K, 101.33 kPa, x1 = 0.073 | 0.5223
313.75 K, 101.33 kPa, x1 = 0.568 | 0.5979
313.75 K, 101.33 kPa, x1 = 0.849 | 0.6472
318.15 K, 101 kPa, x1 = 0.08 | 0.475
318.15 K, 101 kPa, x1 = 0.121 | 0.482
318.15 K, 101 kPa, x1 = 0.162 | 0.486
322.85 K, 101.33 kPa, x1 = 0.143 | 0.5005
323.15 K, 101 kPa, x1 = 0.08 | 0.444
323.15 K, 101 kPa, x1 = 0.121 | 0.451
323.15 K, 101 kPa, x1 = 0.162 | 0.454
323.15 K, 101 kPa, x1 = 0.8 | 0.541
